# Legend:
# [1] = Kinetic of AdipoRon in plasma and brain areas by HPLC coupled to MS/MS; type: in vivo; settings: for time of highest level of AdipoRon post ip injection: 1mg/kg ip; for level of AdipoRon: 3-hours post ip injection, 1mg/kg
# [2] = system: wt and depression-like mouse models; assay: Forced Swimming test (FST), acute administration; type: in vivo; settings: LPS-treated mice (0.83 mg/kg LPS), 1mg/kg ip
# Description: (§1) Three well-established mouse models of depression-like behavior have been used in the present study namely i- the long-term corticosterone treatment in the drinking water (David, Samuels et al. 2009), ii- the peripheral administration of LPS (O'Connor, Lawson et al. 2009) iii- the ApN^-/- mice (Liu, Guo et al. 2012). For chronic AdipoRon treatment, the experimental protocol was as followed: • i- Five weeks old male mice (five/cage) received corticosterone (35mg/L dissolved in tap water containing 4 g/L CD) or vehicle alone ad libitum for during 7 consecutive weeks (David, Samuels et al. 2009). Corticosterone and vehicle solutions were changed every 3 days to prevent possible degradation. […]
# (§2) All behavioral testing were conducted during the light phase (between 09:00 and 14:00 am) in compliance with the Institutional Animal Care and Use Committee of the University of Nice-Sophia Antipolis (permission number 010344.01 from the French "Ministère de l'Enseignement Supérieur et de la Recherche" granted to Dr. Joëlle Chabry). • Forced Swimming test (FST) - Mice were placed an inescapable transparent tank (20cm diameter, 30cm deep) filled with water (23°C ± 0.5) for six minutes as previously described by Porsolt et al. (1977). […] To initiate testing, mice were placed into the light side and activity was recorded for 5 minutes. […]
# [3] = Weight, food and water intake under chronic treatment; type: in vivo, mice; settings: chronic AdipoRon treatment
# Description: Three well-established mouse models of depression-like behavior have been used in the present study namely i- the long-term corticosterone treatment in the drinking water (David, Samuels et al. 2009), ii- the peripheral administration of LPS (O'Connor, Lawson et al. 2009) iii- the ApN^-/- mice (Liu, Guo et al. 2012). For chronic AdipoRon treatment, the experimental protocol was as followed: • i- Five weeks old male mice (five/cage) received corticosterone (35mg/L dissolved in tap water containing 4 g/L CD) or vehicle alone ad libitum for during 7 consecutive weeks (David, Samuels et al. 2009). Corticosterone and vehicle solutions were changed every 3 days to prevent possible degradation. Additionally, during the last three weeks of corticosterone treatment, mice were daily intraperitoneally (ip) injected with AdipoRon (1mg/kg in 2.5% DMSO) or vehicle alone. • ii- Eight weeks old male mice daily ip injected with AdipoRon or vehicle as described above for twenty consecutive days. One day prior behavioral testing, mice were injected ip with LPS (0.83 mg/kg) or saline solution; the LPS dose was selected on the basis of its ability to induce the full spectrum of the acute sickness and depressive-like behaviors (Lestage, Verrier et al. 2002).
# AMPK = AMPK phosphorylation in hypothalamus by western blot; type: in vivo, mice; settings: 1mg/kg
# hippocampal neurogenesis = assay: Hippocampal neurogenesis (BrdU-positive cells in dentate gyrus); type: in vivo, mice; settings: chronic AdipoRon
# [4] = system: corticosterone-treated mice; assay: Novelty Suppressed Feeding (NSF), chronic administration; type: in vivo; settings: chronic 1mg/kg ip daily
# Description: as §1, §2
# AdipoR2 = target: T1, AdipoR2 (Homo sapiens, UniProt Q86V24); settings: Okada-Iwabu, Yamauchi et al. 2013; cited from earlier work
# T1 sequence (Q86V24 1-386): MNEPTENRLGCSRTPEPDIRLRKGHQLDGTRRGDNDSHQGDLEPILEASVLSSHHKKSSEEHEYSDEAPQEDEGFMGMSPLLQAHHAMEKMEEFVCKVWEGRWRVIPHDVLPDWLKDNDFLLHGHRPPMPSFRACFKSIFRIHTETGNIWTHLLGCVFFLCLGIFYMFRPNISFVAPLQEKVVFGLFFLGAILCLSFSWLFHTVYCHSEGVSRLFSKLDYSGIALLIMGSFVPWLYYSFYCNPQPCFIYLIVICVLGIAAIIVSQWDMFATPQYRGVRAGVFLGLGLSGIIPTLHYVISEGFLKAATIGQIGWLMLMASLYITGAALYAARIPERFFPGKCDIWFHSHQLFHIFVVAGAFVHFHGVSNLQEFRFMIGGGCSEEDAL
# [5] = system: wt and depression-like mouse models; assay: Forced Swimming test (FST), acute administration; type: in vivo, mice
# [6] = system: presumed serotoninergic neurons; assay: Whole-cell patch-clamp recordings on brain slices, voltage clamp; type: cell-based, mouse
compound,measurement,setting,value
"O=C(COc1ccc(C(=O)c2ccccc2)cc1)NC1CCN(Cc2ccccc2)CC1 [AdipoRon, 2-(4-Benzoylphenoxy)-N-[1-(phenylmethyl)-4-piperidinyl]-acetamide]",time of highest level of AdipoRon post ip injection,[1]; hippocampus,thirty
same,level of AdipoRon,[1]; hippocampus,barely detectable
same,time of highest level of AdipoRon post ip injection,[1]; hypothalamus,thirty
same,level of AdipoRon,[1]; hypothalamus,barely detectable
same,blood-brain barrier (BBB) crossing,"[1]; ip injection, mice",crosses the BBB
same,time of highest level of AdipoRon post ip injection,[1]; plasma,thirty
same,level of AdipoRon,[1]; plasma,barely detectable
same,immobility time in the FST,[2],significantly to reducing this parameter
same,food and water intake,[3],did not significantly modify
same,weight of mice,[3],did not significantly modify
same,level of phospho-AMPK,AMPK; 1-hour post ip injection,increased the level of phospho-AMPK
same,level of phospho-AMPK,AMPK; 30 min post ip injection,increased the level of phospho-AMPK
same,level of phospho-AMPK,AMPK; 3 hours post ip injection,no longer observable
same,hippocampal neurogenesis rate (BrdU-positive nuclei in dentate gyrus),hippocampal neurogenesis; control conditions (no corticosterone),without modifying neurogenesis
same,hippocampal neurogenesis rate (BrdU-positive nuclei in dentate gyrus),"hippocampal neurogenesis; long-term corticosterone-treated mice, 21-days post-BrdU injections",reversed the deleterious effect of corticosterone
same,latency to eat in the NSF,[4]; corticosterone-treated mice,reversed the effect of corticosterone
same,latency to eat in the NSF,[4]; vehicle-treated mice (no corticosterone),no significant effect
same,binding to adiponectin receptor,AdipoR2,bind
same,immobility time in the FST,"[5]; ApN-/- mice, 0.5mg/kg ip, one-hour post injection",remained inefficient
same,immobility time in the FST,"[5]; ApN-/- mice, 1mg/kg per os (gavage), one-hour before FST",reduced the immobility time
same,immobility time in the FST,"[5]; ApN-/- mice, 5mg/kg ip, one-hour post injection",decreased the immobility time
same,immobility time in the FST,"[5]; C57BL/6J wt mice, 1mg/kg ip, 1h post-injection, vs vehicle",decreased the immobility time
same,immobility time in the FST,"[5]; C57BL/6J wt mice, 1mg/kg ip, 3h post-injection, vs vehicle",no significant effect
same,immobility time in the FST,"[5]; corticosterone-treated mice, 0.5mg/kg ip, one-hour post injection",significantly reduced the immobility time
same,immobility time in the FST,"[5]; corticosterone-treated mice, 5mg/kg ip, one-hour post injection",decreased the immobility time
same,immobility time in the FST,"[5]; wt mice, 0.5mg/kg ip, one-hour post injection",significantly reduced the immobility time
same,immobility time in the FST,"[5]; wt mice, 1mg/kg per os (gavage), one-hour before FST",reduced the immobility time
same,immobility time in the FST,"[5]; wt mice, 5mg/kg ip, one-hour post injection",decreased the immobility time
same,effect of AdipoRon on current and membrane conductance,[6]; CsCl internal solution instead of KCl solution,blocked
same,membrane conductance,"[6]; holding potential of -60 mV, KCl internal solution, 10 µM AdipoRon",decrease in membrane conductance
same,induced current,"[6]; holding potential of -60 mV, KCl internal solution, n=9/9 presumed serotoninergic neurons, N=5 mice, 10 µM AdipoRon",small inward current
